In PubChem BioAssay (NCI) one finds TGI and GI50 data, which are given here for 23 compounds.

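The compound was tested at five concentrations on cells cultured in 96-well plates, with a 48-hour exposure period. Here, GI50 denotes the concentration required for 50% inhibition of growth. TGI: total growth inhibition.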 Where a SMILES comes first, the peptide text is derived from it. [ ]: non-standard residue; d: D form. The star is where a group is joined. ξ: configuration not given here. ξF = NC(Cc1ccccc1)C(=O)O; Cbz = O=C(OCc1ccccc1)*; Aib = CC(C)(N)C(=O)O

Test systems include A498 renal; CCRF-CEM leukemia; EKVX NSCLC; HCC-2998 colon; HOP-92 NSCLC; IGROV1 ovarian; K-562 leukemia; MALME-3M melanoma; NCI-H226 lung; RXF 393 renal.
Common to all, as to assay: inhibition of tumour cell growth, NCI panel, 48 h

Turning to `C=C1C(=O)O[C@@H]2/C=C(\C)CC/C=C(\C)CC[C@@]12O`, the TGI turned out to be 24.8 µM in the assay on A498 renal; 0.607 µM in the assay with CCRF-CEM leukemia; 12.1 µM in the assay with EKVX NSCLC; 12.7 µM in the assay with HCC-2998 colon; 3.63 µM with HOP-92 NSCLC; 7.63 µM in the assay on IGROV1 ovarian. Also, the TGI was 12.6 µM in the assay with K-562 leukemia, 3.05 µM in the assay on MALME-3M melanoma, 59.2 µM in the assay on NCI-H226 lung and 0.897 µM in the assay on RXF 393 renal.

With `COC(=O)C1=C(C)N2CCSC2(C)C(C(=O)OC)C1c1cccc(Cl)c1` (configuration not stated), the TGI is 69.5 µM with CCRF-CEM leukemia; 42.1 µM with EKVX NSCLC; 40 µM in the assay on HCC-2998 colon; 53.2 µM in the assay on HOP-92 NSCLC; greater than 100 µM in the assay on IGROV1 ovarian; greater than 100 µM with K-562 leukemia. The TGI with NCI-H226 lung is 47.4 µM; in the assay on RXF 393 renal, 53.5 µM.

Take `CN(Cc1cn(O)c2nc(=N)nc(N)c-2n1)c1ccc(C(=O)NC23CC4CC(CC(C4)C2)C3)cc1`: the TGI in the assay on A498 renal is 57.1 µM; in the assay on CCRF-CEM leukemia it was greater than 100 µM; with EKVX NSCLC it was greater than 100 µM; in the assay with IGROV1 ovarian, greater than 100 µM; in the assay with K-562 leukemia it was greater than 100 µM; in the assay with MALME-3M melanoma, greater than 100 µM. In addition, the TGI was greater than 100 µM in the assay on NCI-H226 lung and 94.9 µM with RXF 393 renal.

Turning to `CC1(CO)COS(=O)OC1` (configuration not stated), the TGI with A498 renal, with CCRF-CEM leukemia, in the assay on HCC-2998 colon, in the assay on HOP-92 NSCLC, with NCI-H226 lung and in the assay on RXF 393 renal was greater than 100 µM throughout.

Turning to `O=C1c2cccnc2C(=O)c2c1c(C(=O)OCCN1CCCCC1)c1ccccn21`, the GI50 with A498 renal was 0.065 µM; in the assay with CCRF-CEM leukemia, 0.294 µM; in the assay on EKVX NSCLC it was 0.851 µM; in the assay on HCC-2998 colon, 0.0788 µM; in the assay with HOP-92 NSCLC it was 0.0426 µM; with IGROV1 ovarian, 0.145 µM. Moreover, the GI50 in the assay on K-562 leukemia was 0.0484 µM; with MALME-3M melanoma, 0.0847 µM; in the assay with NCI-H226 lung, 0.0135 µM; in the assay on RXF 393 renal, 0.0615 µM. The TGI in the assay on A498 renal came out at 13.1 µM; in the assay on CCRF-CEM leukemia, 5 µM; in the assay with EKVX NSCLC, 7.52 µM; in the assay with HCC-2998 colon, 1.57 µM; in the assay on HOP-92 NSCLC, 0.285 µM; in the assay with IGROV1 ovarian, 2.94 µM. The TGI in the assay on K-562 leukemia stood at 1.67 µM; in the assay on MALME-3M melanoma, 0.424 µM; with NCI-H226 lung it was 0.0867 µM; in the assay on RXF 393 renal it was 0.235 µM.

For `Nc1ccc(O)c2c1C(=O)c1c(N)ccc(O)c1C2=O`, the TGI in the assay on A498 renal, in the assay with CCRF-CEM leukemia, with EKVX NSCLC, in the assay on HCC-2998 colon, in the assay on HOP-92 NSCLC and with IGROV1 ovarian was greater than 100 µM throughout. Also, the TGI in the assay on K-562 leukemia, in the assay on MALME-3M melanoma and in the assay on RXF 393 renal was greater than 100 µM throughout.

On to `Cc1cc2c(c(O)c1-c1c(C)cc(O)c3c1C(=O)C=CC3=O)C(=O)C=CC2=O`, for which the TGI worked out at 18.9 µM with A498 renal; 10.1 µM in the assay on HCC-2998 colon; 5.11 µM in the assay on IGROV1 ovarian; 0.23 µM in the assay on K-562 leukemia; 73.5 µM in the assay on NCI-H226 lung; 2.5 µM with RXF 393 renal.

On to `CCN1c2cc(Br)cc3[nH]c(=O)n(c23)CCC1C` (configuration not stated), for which the TGI in the assay on A498 renal was 29 µM; in the assay with CCRF-CEM leukemia, greater than 100 µM; in the assay with EKVX NSCLC it was 23.5 µM; in the assay with HCC-2998 colon, 31.6 µM; in the assay on HOP-92 NSCLC it was 9.25 µM; with IGROV1 ovarian, 31.5 µM. Also, the TGI in the assay on K-562 leukemia is greater than 100 µM; with MALME-3M melanoma, 56.1 µM; in the assay with NCI-H226 lung, 37.8 µM; in the assay with RXF 393 renal, 27.6 µM.

In the case of `CCOC(=O)CNC(=O)C(Cc1ccccc1)NC(=O)C(C)(C)NC(=O)OCc1ccccc1` (configuration not stated) (Cbz-[Aib]-[ξF]-Gly-OEt), the TGI in the assay with A498 renal, with CCRF-CEM leukemia, with EKVX NSCLC, in the assay with HCC-2998 colon, in the assay with HOP-92 NSCLC and in the assay on IGROV1 ovarian was greater than 100 µM in each case. Moreover, the TGI is greater than 100 µM in the assay on K-562 leukemia and 36.2 µM with MALME-3M melanoma.

With `O=C(CSCC(=O)N/N=C/c1ccccc1)N/N=C\c1ccccc1`, the TGI in the assay with CCRF-CEM leukemia, in the assay with EKVX NSCLC, with HOP-92 NSCLC, in the assay on IGROV1 ovarian, in the assay with K-562 leukemia and with MALME-3M melanoma was greater than 100 µM each time. In addition, the TGI with NCI-H226 lung and in the assay on RXF 393 renal was greater than 100 µM throughout.

For `NC(=O)C1CCCN1C(=O)C(N)Cc1ccccc1` (stereo not drawn) (H-Phe-Pro-NH2; configuration not given here), the TGI in the assay on A498 renal, in the assay with CCRF-CEM leukemia, with EKVX NSCLC, in the assay with HCC-2998 colon, in the assay with IGROV1 ovarian and in the assay with K-562 leukemia was greater than 100 µM in each case. The compound also showed a TGI in the assay on MALME-3M melanoma greater than 100 µM.

In the case of `O=C(Oc1c(Cl)cc(C2(c3cc(Cl)c(OC(=O)c4ccccc4)c(Cl)c3)CCCCC2)cc1Cl)c1ccccc1`, the TGI came to 24.1 µM in the assay on A498 renal; 30.1 µM in the assay on CCRF-CEM leukemia; 24.9 µM in the assay with EKVX NSCLC; 22.9 µM with HCC-2998 colon; 21.8 µM in the assay on HOP-92 NSCLC; 23.4 µM with IGROV1 ovarian. Besides, the values for the TGI in the assay with K-562 leukemia, in the assay on NCI-H226 lung and with RXF 393 renal were 31 µM, 42.5 µM and 25.9 µM, respectively.

Regarding `C[C@@H]1C(=O)O[C@H]1[C@H](O)CO`, the TGI with A498 renal, in the assay with CCRF-CEM leukemia, in the assay on EKVX NSCLC, with HCC-2998 colon, in the assay with HOP-92 NSCLC and in the assay with RXF 393 renal was greater than 100 µM throughout.

On to `CCCCCCCCCCCCCC1=C(O)C(=O)C(CC2=C(O)C(=O)C(CCCCCCCCCCCCC)=C(O)C2=O)=C(O)C1=O`, for which the TGI with A498 renal, with CCRF-CEM leukemia, with EKVX NSCLC, in the assay with HOP-92 NSCLC, in the assay with IGROV1 ovarian and with K-562 leukemia was greater than 100 µM throughout. Also, the TGI in the assay with MALME-3M melanoma was greater than 100 µM; in the assay with NCI-H226 lung, greater than 100 µM; with RXF 393 renal, 32.2 µM.

Turning to `Nc1[nH]c(=S)nc2nc3c(c(-c4ccccc4)c12)CCCC3`, the TGI in the assay on EKVX NSCLC, in the assay with IGROV1 ovarian, in the assay with K-562 leukemia and in the assay with MALME-3M melanoma was greater than 100 µM each time.

Regarding `CC(C)CCCC(C)[C@H]1CC[C@H]2n3c(nc4ccccc43)CCC[C@]12C` (some centres not stated), the TGI with A498 renal was determined as 28 µM; in the assay with CCRF-CEM leukemia, 49 µM; with HOP-92 NSCLC, 37.3 µM; with IGROV1 ovarian, 34.6 µM; with K-562 leukemia, 36.5 µM; with MALME-3M melanoma, 46.1 µM. Also, the TGI in the assay on NCI-H226 lung and in the assay on RXF 393 renal was 33.5 µM each time.

For `CSc1nc(CO)c(CO)n1C`, the TGI with A498 renal, in the assay with CCRF-CEM leukemia, in the assay with EKVX NSCLC, with HCC-2998 colon, in the assay with HOP-92 NSCLC and in the assay with IGROV1 ovarian was greater than 100 µM each time. In addition, the TGI in the assay with K-562 leukemia, with NCI-H226 lung and in the assay with RXF 393 renal was greater than 100 µM each time.

Turning to `CN(C)CCNC(=O)c1cc(Cl)cc2cc3ccccc3nc12`, the TGI in the assay on A498 renal was 2.2 µM; with CCRF-CEM leukemia it was 3.28 µM; with EKVX NSCLC, 4.81 µM; with HCC-2998 colon, 3.15 µM; in the assay on IGROV1 ovarian it was 8.32 µM; in the assay with MALME-3M melanoma, 14.9 µM. Moreover, the TGI in the assay with NCI-H226 lung amounted to 3.89 µM; with RXF 393 renal, 2.81 µM.

With `CCc1n[nH]c(=O)n1/N=C(\C)c1ccc([N+](=O)[O-])cc1`, the TGI in the assay on CCRF-CEM leukemia, in the assay with EKVX NSCLC, with HOP-92 NSCLC, in the assay on IGROV1 ovarian, in the assay with K-562 leukemia and in the assay on NCI-H226 lung was greater than 100 µM each time. The TGI in the assay on RXF 393 renal was greater than 100 µM.

In the case of `COc1cc(/C=C2\N=C(c3ccccc3)N(c3ccc(C(=O)c4ccccc4)cc3N3C(=O)/C(=C/c4ccc(O)c(OC)c4)N=C3c3ccccc3)C2=O)ccc1O`, the TGI is 36.7 µM in the assay on A498 renal; greater than 100 µM with CCRF-CEM leukemia; 76.4 µM in the assay with EKVX NSCLC; 9.69 µM with HCC-2998 colon; greater than 100 µM in the assay on HOP-92 NSCLC; 29.7 µM with IGROV1 ovarian. The same compound came in with a TGI in the assay on K-562 leukemia of 53 µM.

On to `OC[C@H]1NC[C@@H](O)[C@@H](O)[C@H]1O`, for which the TGI in the assay with A498 renal, in the assay with CCRF-CEM leukemia, in the assay on HCC-2998 colon, with HOP-92 NSCLC, with IGROV1 ovarian and in the assay on K-562 leukemia was greater than 100 µM in each case. For the same compound, the TGI in the assay with MALME-3M melanoma, in the assay on NCI-H226 lung and in the assay on RXF 393 renal was greater than 100 µM throughout.

Regarding `Clc1cc(Cl)c2cc3cccc[n+]3cc2c1Cl`, the TGI with A498 renal turned out to be 34 µM; in the assay on CCRF-CEM leukemia, 37.2 µM; in the assay with EKVX NSCLC it was 30.8 µM; with HCC-2998 colon it was 36.6 µM; with HOP-92 NSCLC, 21.7 µM; with K-562 leukemia it was 45.4 µM. The TGI was 53.7 µM in the assay on MALME-3M melanoma and 43.6 µM with NCI-H226 lung.

Turning to `CC(C)(C)OC(=O)N1C(OP(=O)(Oc2ccccc2)Oc2ccccc2)=CSc2ccccc21`, the TGI in the assay with EKVX NSCLC was greater than 100 µM; with HCC-2998 colon it was greater than 100 µM; with HOP-92 NSCLC it was 80.9 µM; in the assay with IGROV1 ovarian it was greater than 100 µM; with K-562 leukemia it was greater than 100 µM; in the assay with MALME-3M melanoma, 88.1 µM. In addition, the TGI with NCI-H226 lung and with RXF 393 renal was greater than 100 µM each time.
